PubChem BioAssay AID1963448 (Molecular Pharmacology Branch, DTP, NCI, 2024)

Tested on: 616215-338-R-J1-PDC complex spheroid growth, % test/control
Assay: Anticancer human tumor 616215-338-R-J1-PDC patient-derived colon adenocarcinoma cell line growth inhibition [Asc]
Settings: for IC50: curve of first compound; for viability, T/C: stronger effect = lower value
In short: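 Tumor cells were grown as complex spheroids with human endothelial cells (HUVEC) and human mesenchymal stem cells as stroma. Agents were tested alone and in combination, in half-log steps down from the clinical Cmax, or from 10 microM where Cmax was unknown.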

[1] = second compound 0.1 µM, first compound 0.0316 µM
[2] = second compound 0.1 µM, first compound 0.1 µM
[3] = second compound 0.1 µM, first compound 0.316 µM
[4] = second compound 0.1 µM, first compound 1 µM
[5] = second compound 0.1 µM, first compound 3.16 µM
[6] = second compound 0.1 µM, first compound 10 µM
[7] = second compound 0.316 µM, first compound 0.0316 µM
[8] = second compound 0.316 µM, first compound 0.1 µM
[9] = second compound 0.316 µM, first compound 0.316 µM
[10] = second compound 0.316 µM, first compound 1 µM
[11] = second compound 0.316 µM, first compound 3.16 µM
[12] = second compound 0.316 µM, first compound 10 µM
[13] = second compound 1 µM, first compound 0.0316 µM
[14] = second compound 1 µM, first compound 0.1 µM
[15] = second compound 1 µM, first compound 0.316 µM
[16] = second compound 1 µM, first compound 1 µM
[17] = second compound 1 µM, first compound 3.16 µM
[18] = second compound 1 µM, first compound 10 µM
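Further: spheroids exposed to agents for seven days before readout.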
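Wherever viability, T/C is given: 100% = DMSO vehicle control viability.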

Q: With C#Cc1c(F)ccc2cc(O)cc(-c3ncc4c(N5CC6CCC(C5)N6)nc(OCC56CCCN5CC(F)C6)nc4c3F)c12 (configuration not stated) + CNC(C)C(=O)NC1CN(S(=O)(=O)c2cccc(S(=O)(=O)N3CCC4CCC(C(=O)NC(c5ccccc5)c5ccccc5)N4C(=O)C(NC(=O)C(C)NC)C3)c2)CCC2CCC(C(=O)NC(c3ccccc3)c3ccccc3)N2C1=O as the compound, how does the IC50 (second compound 0.00316 µM) read?
A: The IC50 was 2280 nM.

Q: What about the IC50 (second compound 0.01 µM) of the same compound?
A: The IC50 was 2490 nM.

Q: What about the IC50 (second compound 0.0316 µM) of the same compound?
A: Its IC50 is 3760 nM.

Q: What about the IC50 (second compound 0.1 µM) of the same compound?
A: Its IC50 is 2330 nM.

Q: What about the IC50 (second compound 0.316 µM) of the same compound?
A: The IC50 was 2720 nM.

Q: And the IC50 (second compound 1 µM)?
A: Its IC50 is 2100 nM.

Q: And the viability, T/C (second compound 0.00316 µM, first compound 0.0316 µM)?
A: The viability, T/C was 94.8%.

Q: What about the viability, T/C (second compound 0.00316 µM, first compound 0.1 µM) of the same compound?
A: The viability, T/C was 104%.

Q: And the viability, T/C (second compound 0.00316 µM, first compound 0.316 µM)?
A: Its viability, T/C is 95.6%.

Q: And the viability, T/C (second compound 0.00316 µM, first compound 1 µM)?
A: Its viability, T/C is 100%.

Q: And the viability, T/C (second compound 0.00316 µM, first compound 3.16 µM)?
A: The viability, T/C was 30.6%.

Q: What about the viability, T/C (second compound 0.00316 µM, first compound 10 µM) of the same compound?
A: Its viability, T/C is 6.11%.

Q: And the viability, T/C (second compound 0.01 µM, first compound 0.0316 µM)?
A: The viability, T/C was 101%.

Q: And the viability, T/C (second compound 0.01 µM, first compound 0.1 µM)?
A: Its viability, T/C is 99.3%.

Q: What about the viability, T/C (second compound 0.01 µM, first compound 0.316 µM) of the same compound?
A: The viability, T/C was 104%.

Q: What about the viability, T/C (second compound 0.01 µM, first compound 1 µM) of the same compound?
A: Its viability, T/C is 97.6%.

Q: What about the viability, T/C (second compound 0.01 µM, first compound 3.16 µM) of the same compound?
A: Its viability, T/C is 37.4%.

Q: What about the viability, T/C (second compound 0.01 µM, first compound 10 µM) of the same compound?
A: Its viability, T/C is 5.11%.

Q: What about the viability, T/C (second compound 0.0316 µM, first compound 0.0316 µM) of the same compound?
A: The viability, T/C was 100%.

Q: What about the viability, T/C (second compound 0.0316 µM, first compound 0.1 µM) of the same compound?
A: The viability, T/C was 95.7%.

Q: And the viability, T/C (second compound 0.0316 µM, first compound 0.316 µM)?
A: The viability, T/C was 99.9%.

Q: What about the viability, T/C (second compound 0.0316 µM, first compound 1 µM) of the same compound?
A: Its viability, T/C is 104%.

Q: And the viability, T/C (second compound 0.0316 µM, first compound 3.16 µM)?
A: Its viability, T/C is 57.1%.

Q: What about the viability, T/C (second compound 0.0316 µM, first compound 10 µM) of the same compound?
A: Its viability, T/C is 9.6%.

Q: What about the viability, T/C [1] of the same compound?
A: Its viability, T/C is 90.9%.

Q: And the viability, T/C [2]?
A: The viability, T/C was 102%.

Q: What about the viability, T/C [3] of the same compound?
A: Its viability, T/C is 105%.

Q: And the viability, T/C [4]?
A: The viability, T/C was 89.4%.

Q: And the viability, T/C [5]?
A: Its viability, T/C is 35.7%.

Q: And the viability, T/C [6]?
A: The viability, T/C was 4.68%.

Q: What about the viability, T/C [7] of the same compound?
A: Its viability, T/C is 98.7%.

Q: What about the viability, T/C [8] of the same compound?
A: Its viability, T/C is 102%.

Q: What about the viability, T/C [9] of the same compound?
A: Its viability, T/C is 109%.

Q: What about the viability, T/C [10] of the same compound?
A: The viability, T/C was 89.9%.

Q: What about the viability, T/C [11] of the same compound?
A: The viability, T/C was 44.2%.

Q: What about the viability, T/C [12] of the same compound?
A: The viability, T/C was 6.83%.

Q: What about the viability, T/C [13] of the same compound?
A: Its viability, T/C is 106%.

Q: What about the viability, T/C [14] of the same compound?
A: The viability, T/C was 86%.

Q: And the viability, T/C [15]?
A: The viability, T/C was 102%.

Q: What about the viability, T/C [16] of the same compound?
A: Its viability, T/C is 104%.

Q: What about the viability, T/C [17] of the same compound?
A: Its viability, T/C is 22.4%.

Q: And the viability, T/C [18]?
A: Its viability, T/C is 3.39%.

Q: C#Cc1c(F)ccc2cc(O)cc(-c3ncc4c(N5CC6CCC(C5)N6)nc(OCC56CCCN5CC(F)C6)nc4c3F)c12 (configuration not stated) + Cc1c(S(C)(=O)=O)c(-c2cc(F)cc(N3CCN(c4ccc(NS(=O)(=O)c5ccc(NC(CCN6CCC(C(=O)OCCCP(=O)(O)O)CC6)CSc6ccccc6)c(S(=O)(=O)C(F)(F)F)c5)cc4)CC3)c2)c(-c2ccc(Cl)cc2)n1C(C)C was tested. Which IC50 (second compound 0.1 µM) did it give?
A: Its IC50 is greater than 10000 nM.

Q: What about the IC50 (second compound 0.316 µM) of the same compound?
A: The IC50 was greater than 10000 nM.

Q: What about the IC50 (second compound 1 µM) of the same compound?
A: The IC50 was 6410 nM.

Q: What about the IC50 (second compound 3.16 µM) of the same compound?
A: Its IC50 is less than 31.6 nM.

Q: And the IC50 (second compound 10 µM)?
A: Its IC50 is less than 31.6 nM.

Q: What about the viability, T/C [1] of the same compound?
A: Its viability, T/C is 92.2%.

Q: What about the viability, T/C [2] of the same compound?
A: The viability, T/C was 88.2%.

Q: And the viability, T/C [3]?
A: Its viability, T/C is 93.3%.

Q: What about the viability, T/C [4] of the same compound?
A: The viability, T/C was 98.2%.

Q: What about the viability, T/C [5] of the same compound?
A: The viability, T/C was 87.5%.

Q: What about the viability, T/C [6] of the same compound?
A: The viability, T/C was 56.6%.

Q: What about the viability, T/C [7] of the same compound?
A: Its viability, T/C is 96.6%.

Q: What about the viability, T/C [8] of the same compound?
A: Its viability, T/C is 91.9%.

Q: And the viability, T/C [9]?
A: The viability, T/C was 88.8%.

Q: And the viability, T/C [10]?
A: Its viability, T/C is 97.4%.

Q: What about the viability, T/C [11] of the same compound?
A: Its viability, T/C is 72.1%.

Q: What about the viability, T/C [12] of the same compound?
A: Its viability, T/C is 52%.

Q: What about the viability, T/C [13] of the same compound?
A: Its viability, T/C is 68.8%.

Q: What about the viability, T/C [14] of the same compound?
A: Its viability, T/C is 70%.

Q: What about the viability, T/C [15] of the same compound?
A: Its viability, T/C is 66.8%.

Q: What about the viability, T/C [16] of the same compound?
A: Its viability, T/C is 68.2%.

Q: And the viability, T/C [17]?
A: The viability, T/C was 61.1%.

Q: What about the viability, T/C [18] of the same compound?
A: The viability, T/C was 42.8%.

Q: And the viability, T/C (second compound 3.16 µM, first compound 0.0316 µM)?
A: The viability, T/C was 39.5%.

Q: And the viability, T/C (second compound 3.16 µM, first compound 0.1 µM)?
A: Its viability, T/C is 38.8%.

Q: And the viability, T/C (second compound 3.16 µM, first compound 0.316 µM)?
A: Its viability, T/C is 40.3%.

Q: What about the viability, T/C (second compound 3.16 µM, first compound 1 µM) of the same compound?
A: Its viability, T/C is 39.6%.

Q: What about the viability, T/C (second compound 3.16 µM, first compound 3.16 µM) of the same compound?
A: The viability, T/C was 34.1%.

Q: What about the viability, T/C (second compound 3.16 µM, first compound 10 µM) of the same compound?
A: Its viability, T/C is 9.96%.

Q: What about the viability, T/C (second compound 10 µM, first compound 0.0316 µM) of the same compound?
A: Its viability, T/C is 29.7%.

Q: What about the viability, T/C (second compound 10 µM, first compound 0.1 µM) of the same compound?
A: The viability, T/C was 25.5%.

Q: What about the viability, T/C (second compound 10 µM, first compound 0.316 µM) of the same compound?
A: Its viability, T/C is 29.8%.

Q: And the viability, T/C (second compound 10 µM, first compound 1 µM)?
A: Its viability, T/C is 21.8%.

Q: And the viability, T/C (second compound 10 µM, first compound 3.16 µM)?
A: Its viability, T/C is 10.8%.

Q: What about the viability, T/C (second compound 10 µM, first compound 10 µM) of the same compound?
A: The viability, T/C was 0.92%.
